According to patent US20180028594A1, “[…] OPIOID RECEPTOR AGONISTS FOR HARD TISSUE PAIN” (Cara Therapeutics, Inc., priority 2014, published 2018):

Key:
[1] = tested on: acute and chronic visceral, inflammatory and neuropathic pain; experiment: Standard preclinical pain models, onset and duration of analgesic effect; type: in vivo
Procedure: (§1) In standard preclinical pain models, CR845 successfully attenuated acute and chronic visceral, inflammatory and neuropathic pain in a dose-dependent manner (see Table 1, below). The analgesic effect of CR845 was recordable within 15 minutes post-administration and lasted for up to 18 hours following single-dose administration.

[2] = tested on: Somatic and visceral pain; experiment: Acetic Acid Writhing, somato-visceral inflammatory pain model; type: in vivo; settings: Mouse
Procedure: as §1

[3] = Phase 1 clinical trials, safety and sedation (Ramsey Sedation Scale); type: in vivo, human
Description: The most common TEAEs across evaluated populations were transient facial tingling or numbness, dizziness, fatigue and a transient increase in urine output in the absence of electrolyte loss, or aquaresis. […] No other changes in vital signs, including supine pulse rate, blood pressure, respiratory rate, oral body temperature, or oxygen saturation were reported, nor were any clinically significant changes observed in electrocardiogram characteristics. Additionally, the CNS adverse events characteristic of prior-generation CNS-active kappa agonists, such as acute psychiatric side effects, were not observed with CR845. The potential to cause sedation was assessed using the Ramsey Sedation Scale in the ascending dose-tolerance Phase 1 trial (Study 2048-001) of I.V. CR845, which included 54 subjects (17 on placebo; 37 on CR845).

[4] = tested on: pro-inflammatory mediators; experiment: Production and release of pro-inflammatory mediators
[5] = tested on: mechanical hyperalgesia; experiment: Complete Freund's Adjuvant, chronic inflammatory pain model; type: in vivo; settings: Rat
Procedure: as §1

[6] = tested on: tactile allodynia; experiment: L5/6 Spinal Nerve Ligation (Chung Model) of neuropathic pain; type: in vivo, Rat
Procedure: FIG. 1: Efficacy of CR845 in “Chung Model” of neuropathic pain is blocked with Peripheral (Intrapaw) administration of a kappa antagonist (norBNI) in rats. *** denotes p<0.001. compared to vehicle-treated controls (two-way ANOVA). Vehicle or Nor-BNI was administered intraplantarly (0.2 mg) 15 min prior to CR845. Injection (1 mg/kg). N=6 male rats/group, mean±SEM.
The peripheral mechanism of action of CR845 is supported preclinically by both biochemical in vitro assays and in vivo functional pharmacological studies. […] Moreover, in standard preclinical pain models, such as the “Chung Model” of neuropathic pain, the analgesic action of CR845 was blocked with kappa opioid receptor antagonists administered directly to the local site of injury, indicating a peripheral site of action for CR845 (FIG. 1). In the “Chung Model”, neuropathic pain is induced experimentally by ligating spinal nerves mediating sensation for a hind limb. […] Sets of different thickness filaments are used to test sensitivity, each of which is designed to produce a given force (in grams) upon bending after contact. By testing with these filaments, the minimum force to evoke a withdrawal response defines the paw withdrawal threshold. The nerve injury produces a marked reduction in paw withdrawal thresholds (increased sensitivity to force) in response to probing with the filaments.

[7] = tested on: mechanical hyperalgesia; experiment: Carrageenan, acute inflammatory pain model; type: in vivo; settings: Rat
Procedure: as §1

[8] = tested on: postoperative pain (soft tissue surgery); settings: human, in vivo
[9] = Pharmacokinetic studies, drug in extracted brain tissue; type: in vivo; settings: animals, analgesic and supra-analgesic doses
[10] = tested on: postoperative pain (hard tissue surgery); settings: human, in vivo

SMILES: CC(C)C[C@@H](NC(=O)[C@@H](Cc1ccccc1)NC(=O)[C@H](N)Cc1ccccc1)C(=O)N[C@H](CCCCN)C(=O)N1CCC(N)(C(=O)O)CC1 [CR845, D-Phe-D-Phe-D-Leu-D-Lys-[ω(4-aminopiperidine-4-carboxylic acid)]—OH]
- Time at which analgesic effect was recordable post-administration [1]: ≤ 15 min
- Duration of analgesic effect following single-dose administration ([1]; single dose): up to 18 hours
- Duration of Action [2]: >18 h
- ED50 (I.V., mg/kg) ([2]; I.V.): 0.07 mg/kg
- Sedation, Ramsey Sedation Scale ([3]; ascending dose-tolerance Phase 1 trial (Study 2048-001), I.V., healthy subjects): did not cause sedation
- Tolerability ([3]; four Phase 1 clinical trials): generally well tolerated
- Production and release of pro-inflammatory mediators [4]: decreased the production and release of pro-inflammatory mediators
- Duration of Action [5]: >2 h
- ED50 (I.V., mg/kg) ([5]; I.V., mechanical hyperalgesia): 0.08 mg/kg
- ED50 (I.V., mg/kg) ([6]; Rat, I.V., L5/6 Spinal Nerve Ligation, tactile allodynia): 0.3 mg/kg
- Duration of Action ([6]; Rat, L5/6 Spinal Nerve Ligation): >8 h
- Paw withdrawal threshold ([6]; rats, I.V. CR845 1 mg/kg, Chung Model): increase in the withdrawal threshold
- Duration of Action [7]: >1 h
- ED50 (I.V., mg/kg) ([7]; I.V., mechanical hyperalgesia): 0.3 mg/kg
- Greater reduction in pain intensity (PID) at 24 hours compared to Placebo/Placebo [8]: approximately 60%
- Improvement in mean SPID values 0-4 hour compared to Placebo/Placebo [8]: 3.5 fold
- Incidence of nausea, patients [8]: 26.1%
- Incidence of vomiting, patients [8]: 1.7%
- Mean TOTPAR0-2, pain relief within first 2 hours compared to Placebo/Placebo [8]: statistically superior pain relief
- Percentage of patients characterized as Responders (global evaluation of study medication) compared to placebo [8]: higher percentage
- Pruritus reported compared to placebo [8]: less pruritus
- Reduction of incidence of nausea versus placebo [8]: approximately 50%
- Reduction of incidence of vomiting versus placebo [8]: ~80%
- SPID over 0-8, 0-12 and 0-16 time periods compared to Placebo/Placebo [8]: reduced pain intensity
- Blood sodium increase (hypernatremia), of total patients ([8]; iv, 0.04 mg/kg): 14%
- Concentration of drug in extracted brain tissue [9]: no measurable concentrations
- Acute psychiatric side effects [10]: no evidence of acute psychiatric side effects
- Mean PID from baseline relative to placebo across 48 hour trial period [10]: numerically superior
- Most frequent TEAEs (greater than 10%) [10]: transient facial tingling and somnolence
- Reduction of incidence of nausea compared to placebo [10]: 60%
- Reduction of incidence of vomiting compared to placebo [10]: 80%
- SPID scores 0-24, 0-36, 0-48 compared to placebo [10]: Numerical improvements
- Rise of mean plasma sodium concentration from baseline ([10]; iv, 0.005 mg/kg): approximately 3%
- SPID0-24 compared to placebo ([10]; iv, 0.005 mg/kg): statistically significant reduction in pain intensity
- SPID0-36 compared to placebo ([10]; iv, 0.005 mg/kg): statistically significant
- SPID0-48 compared to placebo ([10]; iv, 0.005 mg/kg): statistically significant

SMILES: Oc1ccc2c3c1O[C@H]1c4[nH]c5c(c4C[C@@]4(O)[C@@H](C2)N(CC2CC2)CC[C@]314)C[C@@]1(O)[C@H]2Cc3ccc(O)c4c3[C@@]1(CCN2CC1CC1)[C@H]5O4 [nor-BNI, nor-binaltorphamine, reference compound]
- Effect of kappa antagonist on efficacy of CR845 ([6]; rats, 0.2 mg intraplantar into injured paw 15 min prior to CR845 1 mg/kg): significantly reduces the effect of CR845
